Source: ChEMBL document CHEMBL1140747, “Discovery of potent and selective dipeptidyl peptidase IV inhibitors derived from beta-aminoamides bearing subsituted triazolopiperazines” (J Med Chem, 2008)

What was measured:
[1] = target: Dipeptidyl peptidase 4 (Homo sapiens, UniProt P27487)
[2] = target: Dipeptidyl peptidase 2 (Homo sapiens, UniProt Q9UHL4); assay: Inhibition of QPP
[3] = target: Dipeptidyl peptidase 8 (Homo sapiens, UniProt Q6V1X1); assay: Inhibition of DPP8
[4] = target: Dipeptidyl peptidase 9 (Homo sapiens, UniProt Q86TI2); assay: Inhibition of DPP9
[5] = Plasma clearance in rat at 1 mg/kg, iv and 2 mg/kg, po; assay type: ADME, organism-based
[6] = Half life in rat at 1 mg/kg, iv and 2 mg/kg, po; assay type: ADME, organism-based; settings: in vivo
[7] = Cmax in rat at 2 mg/kg, po; assay type: ADME, organism-based; design: dose 2 mg/kg, route oral; settings: in vivo
[8] = Oral bioavailability in rat at 2 mg/kg; assay type: ADME, organism-based; settings: in vivo
[9] = target: Xaa-Pro aminopeptidase 1 (Homo sapiens, UniProt Q9NQW7); assay: Inhibition of amino peptidase P
[10] = target: T1, Xaa-Pro dipeptidase (Homo sapiens, UniProt P12955); assay: Inhibition of prolidase
T1 sequence (P12955 whole entry): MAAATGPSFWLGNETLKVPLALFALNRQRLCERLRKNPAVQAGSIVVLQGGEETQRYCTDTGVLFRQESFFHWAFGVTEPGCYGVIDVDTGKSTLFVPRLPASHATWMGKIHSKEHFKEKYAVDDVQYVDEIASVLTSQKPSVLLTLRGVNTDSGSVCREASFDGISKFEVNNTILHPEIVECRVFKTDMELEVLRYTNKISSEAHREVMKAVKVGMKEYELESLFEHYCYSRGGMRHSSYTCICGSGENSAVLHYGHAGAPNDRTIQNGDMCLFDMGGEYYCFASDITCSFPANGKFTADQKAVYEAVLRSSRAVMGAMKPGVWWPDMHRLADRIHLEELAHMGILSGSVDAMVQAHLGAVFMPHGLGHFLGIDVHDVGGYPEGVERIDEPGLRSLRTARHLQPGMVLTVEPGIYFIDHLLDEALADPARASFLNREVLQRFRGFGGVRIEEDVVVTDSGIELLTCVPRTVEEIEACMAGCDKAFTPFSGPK

[11] = target: T2, Prolyl endopeptidase FAP (Homo sapiens, UniProt Q12884); assay: Inhibition of FAP
T2 sequence (Q12884 whole entry): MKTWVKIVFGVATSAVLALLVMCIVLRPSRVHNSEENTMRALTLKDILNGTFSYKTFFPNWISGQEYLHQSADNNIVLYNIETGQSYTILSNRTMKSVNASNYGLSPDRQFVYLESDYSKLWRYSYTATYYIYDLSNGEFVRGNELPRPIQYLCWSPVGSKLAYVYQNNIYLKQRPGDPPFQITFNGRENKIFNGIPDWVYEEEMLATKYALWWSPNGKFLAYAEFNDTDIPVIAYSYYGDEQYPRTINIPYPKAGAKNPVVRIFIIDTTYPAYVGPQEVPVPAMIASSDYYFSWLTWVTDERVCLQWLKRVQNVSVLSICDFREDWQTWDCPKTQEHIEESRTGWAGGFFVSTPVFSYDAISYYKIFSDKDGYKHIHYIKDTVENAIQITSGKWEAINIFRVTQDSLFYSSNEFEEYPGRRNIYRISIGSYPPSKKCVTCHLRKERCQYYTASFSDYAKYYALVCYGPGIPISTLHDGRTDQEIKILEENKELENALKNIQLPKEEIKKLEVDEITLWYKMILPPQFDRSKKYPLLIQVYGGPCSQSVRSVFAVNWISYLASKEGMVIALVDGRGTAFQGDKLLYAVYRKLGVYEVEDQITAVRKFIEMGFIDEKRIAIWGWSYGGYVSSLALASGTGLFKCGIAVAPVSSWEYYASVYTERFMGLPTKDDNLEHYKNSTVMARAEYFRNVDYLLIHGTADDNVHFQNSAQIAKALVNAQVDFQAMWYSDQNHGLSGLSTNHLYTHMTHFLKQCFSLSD

Xaa-Pro aminopeptidase 1, sequence (Q9NQW7 whole entry): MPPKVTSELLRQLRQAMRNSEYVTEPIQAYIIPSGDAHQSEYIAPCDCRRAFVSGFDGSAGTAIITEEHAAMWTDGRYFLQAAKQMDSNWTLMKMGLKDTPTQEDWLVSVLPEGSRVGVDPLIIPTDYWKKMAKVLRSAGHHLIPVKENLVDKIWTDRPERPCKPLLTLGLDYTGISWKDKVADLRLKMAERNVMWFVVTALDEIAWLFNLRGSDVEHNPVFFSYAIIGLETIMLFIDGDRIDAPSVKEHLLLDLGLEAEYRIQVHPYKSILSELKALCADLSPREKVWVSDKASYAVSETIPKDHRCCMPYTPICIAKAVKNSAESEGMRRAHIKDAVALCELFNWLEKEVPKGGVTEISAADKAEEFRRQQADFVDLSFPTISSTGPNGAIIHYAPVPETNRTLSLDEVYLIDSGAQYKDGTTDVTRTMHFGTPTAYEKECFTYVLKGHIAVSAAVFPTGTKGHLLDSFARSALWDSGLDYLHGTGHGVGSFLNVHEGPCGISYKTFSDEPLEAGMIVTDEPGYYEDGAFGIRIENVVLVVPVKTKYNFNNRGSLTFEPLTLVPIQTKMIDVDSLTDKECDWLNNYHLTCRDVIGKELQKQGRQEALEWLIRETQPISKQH
Dipeptidyl peptidase 9, sequence (Q86TI2 whole entry): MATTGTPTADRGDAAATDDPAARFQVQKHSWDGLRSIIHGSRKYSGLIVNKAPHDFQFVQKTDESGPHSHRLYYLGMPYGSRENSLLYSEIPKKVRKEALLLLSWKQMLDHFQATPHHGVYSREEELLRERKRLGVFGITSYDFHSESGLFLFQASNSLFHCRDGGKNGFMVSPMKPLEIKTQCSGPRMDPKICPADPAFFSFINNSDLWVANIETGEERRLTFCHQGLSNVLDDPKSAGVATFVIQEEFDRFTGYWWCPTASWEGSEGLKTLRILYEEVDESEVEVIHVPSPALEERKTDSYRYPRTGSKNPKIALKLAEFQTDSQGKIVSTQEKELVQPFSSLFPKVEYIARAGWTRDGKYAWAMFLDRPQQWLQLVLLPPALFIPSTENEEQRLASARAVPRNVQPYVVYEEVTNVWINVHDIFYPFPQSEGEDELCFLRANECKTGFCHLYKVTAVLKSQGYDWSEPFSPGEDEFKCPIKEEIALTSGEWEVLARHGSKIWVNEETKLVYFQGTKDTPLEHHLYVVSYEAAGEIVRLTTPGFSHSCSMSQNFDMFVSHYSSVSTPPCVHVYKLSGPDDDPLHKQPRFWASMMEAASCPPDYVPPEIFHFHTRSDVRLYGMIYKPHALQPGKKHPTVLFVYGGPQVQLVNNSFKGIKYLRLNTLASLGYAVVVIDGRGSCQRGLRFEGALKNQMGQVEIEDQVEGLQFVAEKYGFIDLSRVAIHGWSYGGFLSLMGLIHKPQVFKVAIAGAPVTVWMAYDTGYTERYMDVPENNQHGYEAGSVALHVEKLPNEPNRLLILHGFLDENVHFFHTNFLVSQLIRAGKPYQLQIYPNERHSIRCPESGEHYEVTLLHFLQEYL
Dipeptidyl peptidase 4, sequence (P27487 whole entry): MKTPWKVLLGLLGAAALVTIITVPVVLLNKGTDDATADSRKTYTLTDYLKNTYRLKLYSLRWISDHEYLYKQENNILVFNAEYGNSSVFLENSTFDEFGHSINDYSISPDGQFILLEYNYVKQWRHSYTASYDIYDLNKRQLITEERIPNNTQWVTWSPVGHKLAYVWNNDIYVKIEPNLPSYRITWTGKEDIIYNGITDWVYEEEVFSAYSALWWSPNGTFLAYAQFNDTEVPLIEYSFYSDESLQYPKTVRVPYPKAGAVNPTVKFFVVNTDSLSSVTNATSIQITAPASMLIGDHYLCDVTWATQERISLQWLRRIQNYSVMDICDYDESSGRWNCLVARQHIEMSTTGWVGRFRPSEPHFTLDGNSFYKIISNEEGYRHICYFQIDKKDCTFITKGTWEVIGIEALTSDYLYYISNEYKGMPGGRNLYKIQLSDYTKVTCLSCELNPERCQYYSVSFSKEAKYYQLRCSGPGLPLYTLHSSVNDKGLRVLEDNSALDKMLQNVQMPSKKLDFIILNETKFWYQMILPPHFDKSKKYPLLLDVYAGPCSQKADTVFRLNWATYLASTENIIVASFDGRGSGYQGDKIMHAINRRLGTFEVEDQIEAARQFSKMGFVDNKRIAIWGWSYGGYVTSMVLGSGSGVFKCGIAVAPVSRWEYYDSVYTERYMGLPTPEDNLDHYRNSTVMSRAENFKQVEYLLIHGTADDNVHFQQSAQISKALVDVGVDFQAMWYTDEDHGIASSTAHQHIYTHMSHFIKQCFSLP
Dipeptidyl peptidase 8, sequence (Q6V1X1 whole entry): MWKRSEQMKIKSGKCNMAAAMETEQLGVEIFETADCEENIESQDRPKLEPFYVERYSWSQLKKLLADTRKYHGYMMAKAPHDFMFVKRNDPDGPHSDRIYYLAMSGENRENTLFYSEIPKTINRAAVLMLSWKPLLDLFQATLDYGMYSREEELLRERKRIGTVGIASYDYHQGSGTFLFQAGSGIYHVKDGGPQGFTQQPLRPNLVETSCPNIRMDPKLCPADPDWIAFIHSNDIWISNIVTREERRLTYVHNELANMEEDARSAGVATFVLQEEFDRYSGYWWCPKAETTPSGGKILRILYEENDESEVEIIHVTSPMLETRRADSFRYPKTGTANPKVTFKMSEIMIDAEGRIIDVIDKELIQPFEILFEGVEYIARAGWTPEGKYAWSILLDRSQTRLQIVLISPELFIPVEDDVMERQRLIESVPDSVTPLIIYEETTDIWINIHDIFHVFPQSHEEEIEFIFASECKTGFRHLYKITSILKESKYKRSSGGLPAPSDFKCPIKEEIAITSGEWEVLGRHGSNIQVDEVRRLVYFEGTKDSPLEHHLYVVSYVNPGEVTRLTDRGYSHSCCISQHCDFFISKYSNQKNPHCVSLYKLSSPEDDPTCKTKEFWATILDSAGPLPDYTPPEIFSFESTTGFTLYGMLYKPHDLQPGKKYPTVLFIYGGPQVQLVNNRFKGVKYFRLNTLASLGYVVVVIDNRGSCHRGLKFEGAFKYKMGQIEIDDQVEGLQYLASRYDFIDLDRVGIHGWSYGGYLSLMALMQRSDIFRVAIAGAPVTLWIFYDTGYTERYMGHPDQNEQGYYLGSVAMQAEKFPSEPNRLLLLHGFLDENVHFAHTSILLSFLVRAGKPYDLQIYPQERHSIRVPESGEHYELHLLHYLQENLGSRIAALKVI

Compound	IC50 [1]	IC50 [2]	IC50 [3]	IC50 [4]	clearance [5]	half-life [6]	Cmax [7]	bioavailability [8]	IC50 [9]	IC50 [10]	IC50 [11]
Cl.N[C@@H](CC(=O)N1CCn2c(nnc2C(F)(F)F)C1Cc1cc(C(F)(F)F)cc(C(F)(F)F)c1)Cc1cc(F)c(F)cc1F (stereo in doubt; 48b)	0.0063 µM	> 100 µM	> 100 µM	> 100 µM	50 mL/min/kg	4.1 h	42 nM	19%	> 10 µM	> 10 µM	> 10 µM
Cl.N[C@@H](CC(=O)N1CCn2c(nnc2C(F)(F)F)C1Cc1ccccn1)Cc1cc(F)c(F)cc1F (stereo in doubt; 49b)	0.0004 µM	> 100 µM	5 µM	> 100 µM	94 mL/min/kg	1.9 h	16 nM	9%	> 10 µM	> 10 µM	> 10 µM
Cl.N[C@@H](CC(=O)N1CCn2c(nnc2C(F)(F)F)C1Cc1ccccc1F)Cc1cc(F)c(F)cc1F (stereo in doubt; 45b)	0.00046 µM	47 µM	1.1 µM	39 µM	74 mL/min/kg	1.4 h	64 nM	26%	> 10 µM	> 10 µM	> 10 µM
C[C@@H]1c2nnc(C(F)(F)F)n2[C@H](C)CN1C(=O)C[C@H](N)Cc1cc(F)c(F)cc1F.Cl	0.012 µM	> 100 µM	70 µM	52 µM	85 mL/min/kg	2.1 h	92 nM	45%	> 10 µM	> 10 µM	> 10 µM
C[C@H]1Cn2c(nnc2C(F)(F)F)CN1C(=O)C[C@H](N)Cc1cc(F)c(F)cc1F	0.091 µM	74 µM	> 100 µM	53 µM					> 10 µM	> 10 µM	> 10 µM
COc1ccc(CC2c3nnc(C(F)(F)F)n3CCN2C(=O)C[C@H](N)Cc2cc(F)c(F)cc2F)cc1 (stereo in doubt; 43b)	0.00043 µM	57 µM	0.367 µM	18 µM					> 10 µM	> 10 µM	> 10 µM
CCC1c2nnc(C(F)(F)F)n2CCN1C(=O)C[C@H](N)Cc1cc(F)c(F)cc1F (stereo in doubt; 38b)	0.005 µM	47 µM	8 µM	> 100 µM					> 10 µM	> 10 µM	> 10 µM
N[C@@H](CC(=O)N1CCn2c(nnc2C(F)(F)F)C1CC(F)(F)F)Cc1cc(F)c(F)cc1F (stereo in doubt; 39b)	0.0057 µM	60 µM	1.6 µM	26 µM					> 10 µM	> 10 µM	> 10 µM
CC1c2nnc(C(F)(F)F)n2C(C)CN1C(=O)C[C@H](N)Cc1cc(F)c(F)cc1F (stereo in doubt; 16a)	0.1 µM	> 100 µM	> 100 µM	> 100 µM					> 10 µM	> 10 µM	> 10 µM
N[C@@H](CC(=O)N1CCn2c(nnc2C(F)(F)F)C1Cc1ccccc1C(F)(F)F)Cc1cc(F)c(F)cc1F (stereo in doubt; 44a)	0.438 µM	83 µM	> 100 µM	> 100 µM					> 10 µM	> 10 µM	> 10 µM
CN(C)C(=O)CC1c2nnc(C(F)(F)F)n2CCN1C(=O)C[C@H](N)Cc1cc(F)c(F)cc1F.Cl (stereo in doubt; 41b)	0.0028 µM	> 100 µM	30 µM	> 100 µM	87 mL/min/kg	2.7 h	4 nM	9%	> 10 µM	> 10 µM	> 10 µM
N[C@@H](CC(=O)N1CCn2c(nnc2C(F)(F)F)C1Cc1ccccc1)Cc1cc(F)c(F)cc1F (single isomer, unassigned)	0.14 µM	87 µM	> 100 µM	> 100 µM					> 10 µM	> 10 µM	> 10 µM
C[C@@H]1CN(C(=O)C[C@H](N)Cc2cc(F)c(F)cc2F)Cc2ccc(C(F)(F)F)n21.Cl	0.014 µM	> 100 µM	33 µM	53 µM	154 mL/min/kg	1.9 h		35%	> 10 µM	> 10 µM	> 10 µM
COc1ccc(CC2c3nnc(C(F)(F)F)n3CCN2C(=O)C[C@H](N)Cc2cc(F)c(F)cc2F)cc1 (stereo in doubt; 43a)	0.32 µM	> 100 µM	> 100 µM	> 100 µM					> 10 µM	> 10 µM	> 10 µM
N[C@@H](CC(=O)N1CCn2c(nnc2C(F)(F)F)C1Cc1ccccn1)Cc1cc(F)c(F)cc1F (stereo in doubt; 49a)	0.132 µM	> 100 µM	> 100 µM	> 100 µM					> 10 µM	> 10 µM	> 10 µM
C=CCC1c2nnc(C(F)(F)F)n2CCN1C(=O)C[C@H](N)Cc1cc(F)c(F)cc1F (stereo in doubt; 40b)	0.032 µM	62 µM	72 µM	> 100 µM					> 10 µM	> 10 µM	> 10 µM
N[C@@H](CC(=O)N1CCn2c(nnc2C(F)(F)F)C1C(O)c1ccc(F)cc1)Cc1cc(F)c(F)cc1F (stereo in doubt; 47d)	0.0005 µM	41 µM	0.628 µM	> 100 µM					> 10 µM	> 10 µM	> 10 µM
